Data on 1 compound can be found in ChEMBL document CHEMBL4308894, “Synthesis and evaluation of biological activity for dual-acting antibiotics on the basis of azithromycin and glycopeptides” (Bioorg Med Chem Lett, 2019).

SMILES strings stand for the structures. In brackets after ≈: the same amount, converted by molar mass. Where only a bound is given, the exact number is not on record here.

Series [1] has as its system Staphylococcus aureus. In words: Antibacterial activity against Staphylococcus aureus isolate 3798 by micro dilution method. The class given is functional.
In the next series the test system is Enterococcus faecalis. In words: Antibacterial activity against Enterococcus faecalis isolate 560 by micro dilution method. In kind it is functional.
For series [2], the system named is Staphylococcus aureus. In words: Antibacterial activity against Staphylococcus aureus isolate 10 infected in C57BL/6 mouse assessed as survival rate at 2.5 mg/kg, iv measured for 10 days (reference value: 0%). In kind it is functional. Conditions: isolate 10, iv, 240 h.
Series [3] relates to Staphylococcus aureus. The experiment in a line: Antibacterial activity against Staphylococcus aureus isolate 10 infected in C57BL/6 mouse assessed as survival rate at 3.5 mg/kg, iv measured for 10 days (reference value: 0%). In kind it is functional. The note with it: isolate 10, iv, 240 h.
Another series relates to Klebsiella pneumoniae. The experiment in a line: Antibacterial activity against Klebsiella pneumoniae ATCC 13883 by micro dilution method. The class given is functional.
Another series concerns Escherichia coli. In words: Antibacterial activity against Escherichia coli ATCC 25922 by micro dilution method. In kind it is functional.
A further series relates to Streptococcus agalactiae. In words: Antibacterial activity against Streptococcus agalactiae isolate 52 by micro dilution method. The class given is functional.
Series [4] deals with Staphylococcus epidermidis. In words: Antibacterial activity against Staphylococcus epidermidis isolate 533 by micro dilution method. In kind it is functional.
Another series concerns Salmonella typhimurium. The experiment in a line: Antibacterial activity against Salmonella choleraesuis ATCC 14028 by micro dilution method. The class given is functional, Salmonella enterica subsp. enterica serovar Typhimurium. Conditions: Salmonella enterica.
The subject of series [5] is Staphylococcus aureus. In words: Antibacterial activity against Staphylococcus aureus isolate 10 infected in C57BL/6 mouse assessed as survival rate at 6.5 mg/kg, iv measured for 10 days (reference value: 0%). Conditions: isolate 10, iv, 240 h. The class given is functional.
The test system of series [6] is Staphylococcus aureus. The experiment in a line: Antibacterial activity against Staphylococcus aureus isolate 10 infected in iv dosed C57BL/6 mouse measured for 10 days. In kind it is functional. Conditions: isolate 10, iv, 240 h.
In the next series the test system is Enterococcus faecium. In words: Antibacterial activity against Enterococcus faecium isolate 569 by micro dilution method. In kind it is functional.
Another series has as its system Streptococcus pneumoniae. In words: Antibacterial activity against Streptococcus pneumoniae ATCC 49619 by micro dilution method. The class given is functional.
Series [7] has as its system Staphylococcus aureus. In words: Antibacterial activity against Staphylococcus aureus isolate 10 infected in C57BL/6 mouse assessed as survival rate at 4.5 mg/kg, iv measured for 10 days (reference value: 0%). The class given is functional. The note with it: isolate 10, iv, 240 h.
For series [8], the system named is Staphylococcus aureus. The experiment in a line: Antibacterial activity against Staphylococcus aureus isolate 10 infected in C57BL/6 mouse assessed as survival rate at 5.5 mg/kg, iv measured for 10 days (reference value: 0%). The class given is functional. Conditions: isolate 10, iv, 240 h.
Series [9] relates to Staphylococcus aureus. In words: Antibacterial activity against Staphylococcus aureus isolate 10 by micro dilution method. The class given is functional.
Series [10] is described as follows: Elimination half life in patient with normal creatinine clearance. In kind it is ADME. The note with it: human, in vivo; read-out: beta t1/2.
Series [11] relates to Staphylococcus aureus. In words: Antibacterial activity against Staphylococcus aureus isolate 10 infected in C57BL/6 mouse assessed as survival rate at 7.5 mg/kg, iv measured for 10 days (reference value: 0%). The note with it: isolate 10, iv, 240 h. In kind it is functional.
The subject of series [12] is Staphylococcus aureus. In words: Antibacterial activity against Staphylococcus aureus isolate 1025 by micro dilution method. The class given is functional.
Another series deals with Enterococcus gallinarum. The experiment in a line: Antibacterial activity against Streptococcus gallinarum ATCC 35038 by micro dilution method. In kind it is functional.

As usually defined, the MIC is the smallest concentration in the dilution series that meets the test's criterion for growth inhibition. Broadly, the ED50 is the dose at which the effect has come halfway, by size or by number of responders. Read a high ED50 as a need for a large dose.

Turning to `CN[C@H](CC(C)C)C(=O)N[C@H]1C(=O)N[C@@H](CC(N)=O)C(=O)N[C@H]2C(=O)N[C@H]3C(=O)N[C@H](C(=O)N[C@H](C(=O)O)c4cc(O)cc(O)c4-c4cc3ccc4O)[C@H](O)c3ccc(c(Cl)c3)Oc3cc2cc(c3O[C@@H]2O[C@H](CO)[C@@H](O)[C@H](O)[C@H]2O[C@H]2C[C@](C)(N)[C@H](O)[C@H](C)O2)Oc2ccc(cc2Cl)[C@H]1O` [VANCOMYCIN], the MIC in the series with Staphylococcus aureus [1] was 8 µg/mL (≈ 5.52 µM); in the series on Enterococcus faecalis, above 32 µg/mL; in the series on Klebsiella pneumoniae, above 32 µg/mL; in the series with Escherichia coli it was above 32 µg/mL; against Streptococcus agalactiae, 8 µg/mL (≈ 5.52 µM); in [4], 0.5 µg/mL (≈ 0.345 µM). Moreover, the MIC in the series on Salmonella typhimurium is above 32 µg/mL; against Enterococcus faecium it was above 32 µg/mL; against Streptococcus pneumoniae it was 2 µg/mL (≈ 1.38 µM); in the series with Staphylococcus aureus [9] it was 0.25 µg/mL (≈ 0.173 µM); in the series with Staphylococcus aureus [12] it was 8 µg/mL (≈ 5.52 µM); against Enterococcus gallinarum it was 4 µg/mL (≈ 2.76 µM). Also, in the series on Staphylococcus aureus [2], the survival at 2.5 mg/kg turned out to be 30%. The survival at 3.5 mg/kg with Staphylococcus aureus [3] turned out to be 40%. Also, the survival at 6.5 mg/kg in the series on Staphylococcus aureus [5] worked out at 90%. In the series on Staphylococcus aureus [6], this compound gave an ED50 of 4.2 mg/kg. In addition, the survival at 4.5 mg/kg with Staphylococcus aureus [7] amounted to 50%. For the same compound, the survival at 5.5 mg/kg in the series with Staphylococcus aureus [8] turned out to be 70%. Also, the half-life in series [10] lay within 6 to 12 h. For the same compound, in the series with Staphylococcus aureus [11], the survival at 7.5 mg/kg was 100%.
